Source: US9206198B2, “Inhibitors of the renal outer medullary potassium channel” (Merck Sharp & Dohme Corp., priority 2012, dated 2015)
pIC50: −log10 of the molar value.

What follows are compounds tested against hROMK (hKir1.1) (Homo sapiens (Human), UniProt P48048) (assay: Thallium Flux Assay (ROMK channel functional thallium flux assay, FLIPR-Tetra)). Details: HEK293 cells stably expressing hROMK.
Format: cell-based
Method: Cell Culture Conditions— HEK293 cells stably expressing hROMK (hKir1.1) were grown at 37° C. in a 10% CO2 humidified incubator in complete growth media: Dulbecco's Modified Eagle Medium supplemented with non-essential amino acids, Penicillin/Streptomycin/Glutamine, G418 and FBS. At >80% confluency, aspirate the media from the flask and rinse with 10 mL Calcium/Magnesium-free PBS. Add 5 mL of 1× trypsin (prepared in Ca/Mg Free PBS) to T-225 flask and return flask to 37° C./CO2 incubator for 2-3 minutes. To dislodge the cell, gently bang the side of the flask with your hand. Triturate the cells completely and then transfer the cells to 25 mL complete media. Centrifuge at 1,500 rpm for 6 min followed by resuspension in complete growth media and determine cell concentration. For typical re-seeding, 4E6 cells/T-225 flask will attain >80% confluency in 4 days. Under ideal growth conditions and appropriate tissue culture practices, this cell line is stable for 40-45 passages.
FluxOR Kit Components (Invitrogen F10017)
• FluxOR™ Reagent (Component A) • FluxOR™ Assay Buffer (Component B)—10× Concentrate • PowerLoad™ Concentrate (Component C)—100× Concentrate • Probenecid (Component D)—Lyophilized sample is kept at −20° C. Water soluble, 100×after solubilization in 1 mL water. Store at 4° C. • FluxOR™ Chloride-free Buffer (Component E)—5× Concentrate • Potassium sulfate (K2SO4) Concentrate (Component F)—125 mM in water. Store at 4° C. • Thallium sulfate (Tl2SO4) Concentrate (Component G)—50 mM in water. Store at 4° C. • DMSO (dimethyl sulfoxide, Component H)—1 mL (100%) Reagent Preparation: FluxOR Working Solutions • 1000× FluxOR™ Reagent: Reconstitute a vial of component A in 100 μl DMSO; Mix well; Store 10 μl aliquots at −20° C. • 1× FluxOR™ Assay Buffer: Dilute Component B 10-fold with water; Adjust pH to 7.4 with Hepes/NaOH; Filter and store at 4° C. • Probenecid/Assay Buffer: 100 mL of 1× FluxOR™ Assay Buffer; 1 mL of reconstituted component D; Store at 4° C. • Loading Buffer (per microplate): 10 μl 1000× FluxOR™ Reagent; 100 μl component C; 10 mL Probenecid/Assay Buffer • Compound Buffer (per microplate): 20 mL Probenecid/Assay Buffer; 0.3 mM ouabain (10 mM ouabain in water can be stored in amber bottle/aluminum foil at room temperature); Test compound • 1× FluxOR™ Chloride-Free Buffer: Prepare 1× working solution in water. Can be stored at room temperature • Stimulant Buffer (prepared at 5× final concentration in 1× FluxOR™ Chloride-Free Buffer): 7.5 mM Thallium sulfate and 0.75 mM Potassium sulfate (to give a final assay concentration of 3 mM Thallium 0.3 mM Potassium). Store at 4° C. when not in use. If kept sterile, this solution is good for months.
Assay Protocol—The ROMK channel functional thallium flux assay is performed in 384 wells, using the FLIPR-Tetra instrument. HEK-hKir1.1 cells are seeded in Poly-D-Lysine microplates and kept in a 37° C.-10% CO2 incubator overnight. On the day of the experiment, the growth media is replaced with the FluxOR™ reagent loading buffer and incubated, protected from light, at ambient temperature (23-25° C.) for 90 min. The loading buffer is replaced with assay buffer±test compound followed by 30 min incubation at ambient temperature, where the Thallium/Potassium stimulant is added to the microplate.
• 1. Seed HEK-hKir1.1 cells ([…] at 20,000 cells/well) in 384-well PDL coated Microplates • 2. Allow cells to adhere overnight in humidified 37° C./10% CO2 incubator • 3. Completely remove cell growth media from microplate and replace with 25 μl loading buffer • 4. Incubate Microplate at room temperature, protected form light, for 90 min • 5. Remove loading buffer and replace with 25 μl 1× Assay Buffer±test compound. • 6. Incubate microplate at room temperature, protected from light, for 30 min • 7. At FLIPR-Tetra 384: Add stimulant (Thallium/Potassium) solution to microplate and monitor fluorescence. Excitation=400 nm, Emission=460 & 580 nm. Collect data for 10 min.

hROMK (hKir1.1), sequence (P48048 whole entry): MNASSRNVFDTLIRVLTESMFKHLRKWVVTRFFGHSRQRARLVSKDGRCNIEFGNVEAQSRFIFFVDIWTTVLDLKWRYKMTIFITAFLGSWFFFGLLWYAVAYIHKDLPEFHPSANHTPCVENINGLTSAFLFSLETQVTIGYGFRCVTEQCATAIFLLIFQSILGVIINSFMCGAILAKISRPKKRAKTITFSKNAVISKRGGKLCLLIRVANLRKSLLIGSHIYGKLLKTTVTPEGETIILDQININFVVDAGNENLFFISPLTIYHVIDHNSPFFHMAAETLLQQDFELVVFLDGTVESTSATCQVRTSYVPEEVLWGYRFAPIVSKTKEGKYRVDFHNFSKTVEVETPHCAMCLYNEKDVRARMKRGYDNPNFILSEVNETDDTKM

**Q.** `CCC1CC2(CCN(C[C@H](O)c3ccc4c(c3C)COC4=O)CC2)C(=O)N1C1=CC(=O)OC1` (single isomer, unassigned) [Example 67] was tested. Which pIC50 did it give?
**A.** The pIC50 was 7.70.

**Q.** `COCCNC(CN1CCC2(CC1)CCN(C1=C(C)C(=O)OC1)C2=O)c1ccc2c(c1C)COC2=O` (stereo not drawn) [Example 58] was tested. Which pIC50 did it give?
**A.** Its pIC50 is 6.66.

**Q.** How did the pIC50 turn out when `CC1=C(N2CCC3(CCN(CC(NCCC#N)c4ccc5c(c4C)COC5=O)CC3)C2=O)COC1=O` (stereo not drawn) [Example 59] was run?
**A.** Its pIC50 is 6.68.

**Q.** `CC1=C(N2CCC3(CCN(C[C@@H](O)c4ccc5c(c4C)COC5=O)CC3)C2=O)COC1=O` [Example 8, 8-[(2S)-2-hydroxy-2-(4-methyl-1-oxo-1,3-dihydro-2-benzofuran-5-yl)ethyl]-2-(4-methyl-5-oxo-2,5-dihydrofuran-3-yl)-2,8-diazaspiro[4.5]decan-1-one] was tested. Which pIC50 did it give?
**A.** The pIC50 was 7.52.

**Q.** `CC1=CN(C2=C(C)C(=O)OC2)C(=O)C12CCN(C[C@H](O)c1ccc3c(c1C)COC3=O)CC2` [Example 73] was tested. Which pIC50 did it give?
**A.** Its pIC50 is 7.10.

**Q.** `CC1=C(N2CCC3(CCN(CC(NC4CC4)c4ccc5c(c4C)COC5=O)CC3)C2=O)COC1=O` (stereo not drawn) [Example 54, 8-(2-(cyclopropylamino)-2-(4-methyl-1-oxo-1,3-dihydroisobenzofuran-5-yl)ethyl)-2-(4-methyl-5-oxo-2,5-dihydrofuran-3-yl)-2,8-diazaspiro[4.5]decan-1-one] was tested. Which pIC50 did it give?
**A.** Its pIC50 is 6.82.

**Q.** `Cc1c([C@@H](O)CN2CCC3(C=CN(C4=CC(=O)OC4)C3=O)CC2)ccc2c1COC2=O` [Example 44] was tested. Which pIC50 did it give?
**A.** The pIC50 was 7.40.

**Q.** How did the pIC50 turn out when `CC1=C(N2CCC3(CCN(CC(NC4CCC4)c4ccc5c(c4C)COC5=O)CC3)C2=O)COC1=O` (stereo not drawn) [Example 56] was run?
**A.** The pIC50 was 6.43.

**Q.** With `CC1=C(N2CCC3(CCN(C[C@H](O)c4ccc5c(c4C)COC5=O)CC3F)C2=O)COC1=O` (single isomer, unassigned) [Example 28] as the compound, how does the pIC50 read?
**A.** The pIC50 was 6.72.

**Q.** How did the pIC50 turn out when `CC1=C(N2CCC3(CCN(CC(O)c4ccc5c(c4C4CC4)COC5=O)CC3)C2=O)COC1=O` (single isomer, unassigned) [Example 77] was run?
**A.** Its pIC50 is 6.62.

**Q.** With `CC1=C(N2CCC3(CCN(C[C@@H](F)c4ccc5c(c4C)COC5=O)CC3)C2=O)COC1=O` [Example 48, 8-[(2S)-2-fluoro-2-(4-methyl-1-oxo-1,3-dihydro-2-benzofuran-5-yl)ethyl]-2-(4-methyl-5-oxo-2,5-dihydrofuran-3-yl)-2,8-diazaspiro[4.5]decan-1-one] as the compound, how does the pIC50 read?
**A.** Its pIC50 is 7.70.

**Q.** `CC1=C(N2CCC3(CCN(C[C@H](O)c4ccc5c(c4C)COC5=O)CC3F)C2=O)COC1=O` (single isomer, unassigned) [Example 27] was tested. Which pIC50 did it give?
**A.** Its pIC50 is 6.68.

**Q.** `CCO[C@@H](CN1CCC2(CC1)CCN(C1=C(C)C(=O)OC1)C2=O)c1ccc2c(c1C)COC2=O` [Example 50, 8-[(2R)-2-ethoxy-2-(4-methyl-1-oxo-1,3-dihydro-2-benzofuran-5-yl)ethyl]-2-(4-methyl-5-oxo-2,5-dihydrofuran-3-yl)-2,8-diazaspiro[4.5]decan-1-one] was tested. Which pIC50 did it give?
**A.** Its pIC50 is 7.52.

**Q.** With `CC1=C(N2CCC3(CCN(C[C@H](O)c4ccc5c(c4C)COC5=O)CC3O)C2=O)COC1=O` (stereo partly drawn) [Example 26] as the compound, how does the pIC50 read?
**A.** Its pIC50 is 6.64.

**Q.** `CC1=C(N2CCC3(CCN(C[C@@H](O)c4cc5c(cc4C)C(=O)OC5)CC3)C2=O)COC1=O` [Example 37] was tested. Which pIC50 did it give?
**A.** Its pIC50 is 7.52.

**Q.** `CC1=C(N2CCC3(CCN(C(CO)Cc4ccc5c(c4C)COC5=O)CC3)C2=O)COC1` (single isomer, unassigned) [Example 84B] was tested. Which pIC50 did it give?
**A.** Its pIC50 is 7.15.

**Q.** `Cc1c([C@@H](O)CN2CCC3(CC2)C[C@@H](C)N(C2=CC(=O)OC2)C3=O)ccc2c1COC2=O` [Example 6A] was tested. Which pIC50 did it give?
**A.** The pIC50 was 7.70.

**Q.** `CC1=C(N2CCC3(CC4COCC(C3)N4C[C@H](O)c3ccc4c(c3C)COC4=O)C2=O)COC1=O` (stereo partly drawn) [Example 82] was tested. Which pIC50 did it give?
**A.** The pIC50 was 6.74.

**Q.** How did the pIC50 turn out when `CC1=C(N2CCC3(CCN([C@@H](C)[C@H](O)c4ccc5c(c4C)COC5=O)CC3)C2=O)COC1=O` [Example 53A] was run?
**A.** Its pIC50 is 8.00.

**Q.** `CC1=C(N2CC(=O)C3(CCN(C[C@H](O)c4ccc5c(c4C)COC5=O)CC3)C2=O)COC1=O` [Example 36] was tested. Which pIC50 did it give?
**A.** The pIC50 was 7.52.

**Q.** `COCC1=C(N2CCC3(CCN(C[C@H](O)c4ccc5c(c4C)COC5=O)CC3)C2=O)COC1=O` [Example 71] was tested. Which pIC50 did it give?
**A.** The pIC50 was 7.15.
